Publication PMC6261342 (Journal of the American Chemical Society, 2018)

Biological target: T1, O-GlcNAc transferase (OGT) (Homo sapiens, UniProt O15294)
T1 sequence (O15294 323-1041): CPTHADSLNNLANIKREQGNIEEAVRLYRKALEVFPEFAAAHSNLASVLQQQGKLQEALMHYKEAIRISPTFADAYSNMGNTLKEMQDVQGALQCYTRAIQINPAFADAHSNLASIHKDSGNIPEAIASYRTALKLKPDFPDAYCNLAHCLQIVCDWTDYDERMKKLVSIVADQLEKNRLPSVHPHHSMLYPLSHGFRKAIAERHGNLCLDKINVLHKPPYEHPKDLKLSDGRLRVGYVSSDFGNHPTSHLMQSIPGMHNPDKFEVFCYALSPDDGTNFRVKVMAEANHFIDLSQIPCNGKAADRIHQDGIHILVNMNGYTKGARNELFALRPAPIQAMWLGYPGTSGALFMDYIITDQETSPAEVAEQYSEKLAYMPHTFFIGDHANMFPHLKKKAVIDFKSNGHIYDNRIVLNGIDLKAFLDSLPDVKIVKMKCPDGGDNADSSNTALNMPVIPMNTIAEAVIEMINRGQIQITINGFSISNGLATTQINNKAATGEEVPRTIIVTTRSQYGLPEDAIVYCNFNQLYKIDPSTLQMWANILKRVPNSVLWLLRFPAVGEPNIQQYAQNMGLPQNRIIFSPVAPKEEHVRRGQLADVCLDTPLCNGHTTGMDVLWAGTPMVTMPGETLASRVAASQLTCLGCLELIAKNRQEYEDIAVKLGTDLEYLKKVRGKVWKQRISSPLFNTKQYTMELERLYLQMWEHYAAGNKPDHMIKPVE
Assay: microscale thermophoresis
Format: binding

With `CC(=O)N[C@H]1[C@@H](OP(=O)(O)OP(=O)(O)OC[C@H]2O[C@@H](n3ccc(=O)[nH]c3=O)[C@H](O)[C@@H]2O)O[C@H](CO)[C@@H](O)[C@@H]1O` [UDP-GlcNAc] the Kd was “confirming that the method produced Kds for UDP and UDP-GlcNAc similar to those”.

With `O=c1ccn([C@@H]2O[C@H](COP(=O)(O)OP(=O)(O)O)[C@@H](O)[C@H]2O)c(=O)[nH]1` [UDP] the Kd was “confirming that the method produced Kds for UDP and UDP-GlcNAc similar to those”.
